According to PMC12597212, “Biaryl Phosphate‐Based Inhibitors of the Transcription Factor STAT4” (Chemmedchem, 2025):
Like-named read-outs stand apart in the source and are kept apart here.

Assays:
STAT4 SH2 domain [1] = molecular target: T1, STAT4 SH2 domain (Homo sapiens, UniProt Q14765); assay: Competitive fluorescence polarization (FP) assay, STAT4; assay type: binding; conditions: for IC50: 28 nM STAT4, 10 nM tracer peptide; for Ki: Ki calculated from IC50, mean ± SD, n = 3
T1 sequence (Q14765 1-748): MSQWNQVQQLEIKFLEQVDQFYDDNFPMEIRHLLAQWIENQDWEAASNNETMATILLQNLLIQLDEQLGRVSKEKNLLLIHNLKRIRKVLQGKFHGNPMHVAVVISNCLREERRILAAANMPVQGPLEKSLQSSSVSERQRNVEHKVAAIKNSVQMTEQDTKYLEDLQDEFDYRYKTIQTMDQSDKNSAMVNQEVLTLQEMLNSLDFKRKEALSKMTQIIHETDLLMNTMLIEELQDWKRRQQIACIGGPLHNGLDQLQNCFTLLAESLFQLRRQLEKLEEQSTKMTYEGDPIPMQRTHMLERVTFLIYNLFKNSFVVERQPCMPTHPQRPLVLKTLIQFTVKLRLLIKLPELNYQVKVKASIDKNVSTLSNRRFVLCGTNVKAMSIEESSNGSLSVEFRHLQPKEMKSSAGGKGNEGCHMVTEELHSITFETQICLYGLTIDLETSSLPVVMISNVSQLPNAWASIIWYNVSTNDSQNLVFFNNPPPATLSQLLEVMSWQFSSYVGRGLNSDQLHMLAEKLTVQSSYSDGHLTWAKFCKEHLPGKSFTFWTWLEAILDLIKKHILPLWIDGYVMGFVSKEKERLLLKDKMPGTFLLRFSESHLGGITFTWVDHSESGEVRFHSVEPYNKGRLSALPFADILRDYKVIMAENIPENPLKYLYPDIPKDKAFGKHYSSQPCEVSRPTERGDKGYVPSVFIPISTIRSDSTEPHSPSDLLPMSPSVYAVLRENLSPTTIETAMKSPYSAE
Procedure: (§1) Fluorescence polarization assays
Competitive fluorescence polarization assays were carried as previously described.[1] Proteins […]
fluorescent-labeled peptides were used as tracers: 5-carboxyfluorescein-GpYLPQNID-OH for STAT4; 5-carboxyfluorescein-GpYDKPHVL for STAT1; 5-carboxyfluorescein-GpYLPQTV-NH2 for STAT3; 5-carboxyfluorescein-GpYLVLDKW for STAT5a/b, and 5-carboxyfluorescein- […]
mM Tris (pH 8.0), 50 mM NaCl, 1 mM EDTA, 1 mM DTT, 0.1 % Nonidet P-40 substitute, 2 %
DMSO. Proteins and test compound were incubated for 1 h at room temperature before the […]
(1 picture or pasted object on this page, not shown here) […]
fluorescent-labeled peptide was added. Samples were transferred to 384-well microtiter plates and fluorescence polarization was read after an additional 60 min of incubation time.
Experiments were carried out in triplicate. Percent binding was calculated based on a logarithmic curve fit using OriginPro 8G software. Conversion of IC50 values to Ki-values was achieved using the published equation[2] embedded in the corresponding Excel spread sheet […]
https://websites.umich.edu/~shaomengwanglab/software/calc_ki/ind ex.html.
(§2) Error bars represent standard deviations. […]
(§3) Experiments were carried out in triplicate. […]

STAT1 [2] = molecular target: T2, STAT1 (Homo sapiens, UniProt P42224); conditions: FP assay; data taken from the literature, ref [1] of the Supporting Information; cited from earlier work
T2 sequence (P42224 1-750): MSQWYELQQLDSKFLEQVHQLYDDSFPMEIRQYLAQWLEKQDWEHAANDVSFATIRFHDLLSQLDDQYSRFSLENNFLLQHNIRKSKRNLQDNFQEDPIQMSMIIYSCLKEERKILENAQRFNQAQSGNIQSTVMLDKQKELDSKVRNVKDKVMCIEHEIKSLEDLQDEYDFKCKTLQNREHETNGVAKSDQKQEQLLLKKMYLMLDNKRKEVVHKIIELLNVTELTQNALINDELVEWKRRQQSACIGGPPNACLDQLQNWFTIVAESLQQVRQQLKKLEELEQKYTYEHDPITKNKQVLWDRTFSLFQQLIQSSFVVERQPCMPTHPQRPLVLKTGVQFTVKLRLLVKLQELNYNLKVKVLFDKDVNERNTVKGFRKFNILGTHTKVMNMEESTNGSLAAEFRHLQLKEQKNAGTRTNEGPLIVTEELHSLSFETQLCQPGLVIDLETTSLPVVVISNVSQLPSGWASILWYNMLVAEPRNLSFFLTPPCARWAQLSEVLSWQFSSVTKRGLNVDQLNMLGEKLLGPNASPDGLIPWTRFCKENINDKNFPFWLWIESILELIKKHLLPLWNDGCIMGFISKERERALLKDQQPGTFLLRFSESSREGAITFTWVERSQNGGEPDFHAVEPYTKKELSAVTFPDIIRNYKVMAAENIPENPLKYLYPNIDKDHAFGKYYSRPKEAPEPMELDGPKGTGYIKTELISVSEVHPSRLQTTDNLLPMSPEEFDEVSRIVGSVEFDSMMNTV

STAT5b = molecular target: T3, STAT5b (Homo sapiens, UniProt P51692); assay: Competitive fluorescence polarization (FP) assay, STAT5b; assay type: binding
T3 sequence (P51692 1-787): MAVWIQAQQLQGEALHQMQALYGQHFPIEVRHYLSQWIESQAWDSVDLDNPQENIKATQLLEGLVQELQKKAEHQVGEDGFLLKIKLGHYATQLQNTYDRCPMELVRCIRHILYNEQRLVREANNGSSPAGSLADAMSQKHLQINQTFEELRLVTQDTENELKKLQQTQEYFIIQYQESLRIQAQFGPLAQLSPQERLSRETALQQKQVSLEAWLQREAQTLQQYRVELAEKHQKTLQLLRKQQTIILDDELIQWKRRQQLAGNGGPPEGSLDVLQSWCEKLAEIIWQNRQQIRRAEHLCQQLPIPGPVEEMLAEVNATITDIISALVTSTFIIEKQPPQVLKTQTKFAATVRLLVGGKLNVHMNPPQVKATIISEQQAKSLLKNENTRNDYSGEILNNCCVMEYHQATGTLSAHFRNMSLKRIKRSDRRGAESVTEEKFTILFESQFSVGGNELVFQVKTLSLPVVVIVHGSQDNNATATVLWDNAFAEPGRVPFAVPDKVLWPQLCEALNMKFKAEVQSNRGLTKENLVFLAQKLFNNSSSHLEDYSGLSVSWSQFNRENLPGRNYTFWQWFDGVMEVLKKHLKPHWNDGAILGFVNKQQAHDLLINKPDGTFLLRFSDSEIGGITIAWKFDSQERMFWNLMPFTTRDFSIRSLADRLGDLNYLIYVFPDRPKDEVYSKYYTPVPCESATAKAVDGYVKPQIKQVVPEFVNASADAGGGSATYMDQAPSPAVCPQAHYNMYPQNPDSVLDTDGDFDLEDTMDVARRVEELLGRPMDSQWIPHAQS
Procedure: as §1
(§4) STAT4; 5-carboxyfluorescein-GpYDKPHVL for STAT1; 5-carboxyfluorescein-GpYLPQTV- […]
(§5) fluorescent-labeled peptide was added. Samples were transferred to 384-well microtiter plates […]
(§6) Experiments were carried out in triplicate. Percent binding was calculated based on a logarithmic curve fit using OriginPro 8G software. Conversion of IC50 values to Ki-values was […]
as §2, §3

STAT6 = molecular target: T4, STAT6 (Homo sapiens, UniProt P42226); assay: Competitive fluorescence polarization (FP) assay, STAT6; assay type: binding
T4 sequence (P42226 1-847): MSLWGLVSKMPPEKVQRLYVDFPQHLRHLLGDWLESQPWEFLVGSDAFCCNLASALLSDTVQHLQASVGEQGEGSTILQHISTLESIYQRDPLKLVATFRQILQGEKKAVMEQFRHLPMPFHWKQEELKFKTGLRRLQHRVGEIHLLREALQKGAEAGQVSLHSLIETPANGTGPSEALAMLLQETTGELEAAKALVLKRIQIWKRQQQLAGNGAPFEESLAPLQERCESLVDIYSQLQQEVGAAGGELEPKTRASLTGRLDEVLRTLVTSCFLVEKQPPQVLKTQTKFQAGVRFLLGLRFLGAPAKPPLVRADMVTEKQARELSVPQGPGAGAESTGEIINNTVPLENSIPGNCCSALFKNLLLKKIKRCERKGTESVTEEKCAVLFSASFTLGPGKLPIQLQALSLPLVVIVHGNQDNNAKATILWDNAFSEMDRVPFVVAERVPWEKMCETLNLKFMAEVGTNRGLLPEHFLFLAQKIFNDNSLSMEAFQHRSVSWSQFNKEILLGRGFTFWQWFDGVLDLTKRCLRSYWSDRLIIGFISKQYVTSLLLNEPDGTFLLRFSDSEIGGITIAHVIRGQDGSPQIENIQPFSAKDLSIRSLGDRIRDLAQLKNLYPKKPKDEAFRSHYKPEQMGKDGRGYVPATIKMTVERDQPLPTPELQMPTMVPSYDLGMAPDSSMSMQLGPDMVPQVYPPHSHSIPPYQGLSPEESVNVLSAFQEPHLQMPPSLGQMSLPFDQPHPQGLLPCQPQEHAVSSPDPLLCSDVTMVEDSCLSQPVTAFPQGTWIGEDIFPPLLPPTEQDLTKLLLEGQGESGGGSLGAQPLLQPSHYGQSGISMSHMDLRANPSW
Procedure: as §1, §4, §5, §6, §2, §3

STAT5a = molecular target: T5, STAT5a (Homo sapiens, UniProt P42229); assay: Competitive fluorescence polarization (FP) assay, STAT5a; assay type: binding
T5 sequence (P42229 1-794): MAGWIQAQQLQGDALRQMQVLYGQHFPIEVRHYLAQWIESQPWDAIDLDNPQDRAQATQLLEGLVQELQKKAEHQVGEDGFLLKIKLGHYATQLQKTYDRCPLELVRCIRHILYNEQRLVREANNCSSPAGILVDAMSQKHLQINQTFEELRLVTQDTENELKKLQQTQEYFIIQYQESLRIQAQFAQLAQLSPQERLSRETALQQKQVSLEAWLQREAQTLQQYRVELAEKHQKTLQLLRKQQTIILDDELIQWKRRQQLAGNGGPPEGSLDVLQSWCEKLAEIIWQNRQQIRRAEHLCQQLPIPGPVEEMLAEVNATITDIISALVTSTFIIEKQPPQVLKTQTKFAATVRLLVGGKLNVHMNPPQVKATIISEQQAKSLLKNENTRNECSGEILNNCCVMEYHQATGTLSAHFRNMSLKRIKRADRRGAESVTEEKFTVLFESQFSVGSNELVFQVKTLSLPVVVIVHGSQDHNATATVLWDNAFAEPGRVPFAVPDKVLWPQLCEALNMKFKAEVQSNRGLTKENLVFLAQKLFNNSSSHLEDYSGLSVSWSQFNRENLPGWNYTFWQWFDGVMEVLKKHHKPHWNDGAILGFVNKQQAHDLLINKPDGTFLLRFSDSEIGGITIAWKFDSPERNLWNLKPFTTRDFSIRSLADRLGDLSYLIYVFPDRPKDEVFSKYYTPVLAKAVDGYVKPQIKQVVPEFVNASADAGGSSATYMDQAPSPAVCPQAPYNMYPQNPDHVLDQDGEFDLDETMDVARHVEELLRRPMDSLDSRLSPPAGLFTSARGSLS
Procedure: as §1, §4, §5, §6, §2, §3

STAT1 [3] = molecular target: T2, STAT1; assay: Competitive fluorescence polarization (FP) assay, STAT1; assay type: binding
Procedure: as §1, §4, §5, §6, §2, §3

STAT4 SH2 domain [4] = molecular target: T1, STAT4 SH2 domain; conditions: FP assay; data taken from the literature, ref [1] of the Supporting Information; cited from earlier work
[5] = Ki calculated from IC50, mean ± SD, n = 3

Molecule `O=P(O)(O)Oc1ccc(-c2ccsc2)cc1F` [8d] has an IC50 (STAT4 SH2 domain [1]) of 0.52 µM and a Ki (STAT4 SH2 domain [1]) of 0.26 ± 0.02 µM.

Molecule `O=P(O)(O)Oc1ccc(-c2cccs2)cc1F` [8e] has an IC50 (STAT4 SH2 domain [1]) of 0.6 µM and a Ki (STAT4 SH2 domain [1]) of 0.3 ± 0.003 µM.

For `O=P(O)(O)Oc1ccc(-c2ccccc2)cc1` [compound 1, p‐biphenyl phosphate], the IC50 (STAT1 [2]) is given as 16.4 µM.

`O=P(O)(O)Oc1ccc(-c2cccc3ccccc23)cc1` [compound 10] showed an IC50 (STAT5b; 59-85 nM STAT5b, 10 nM tracer peptide) of 89 µM, a Ki (STAT5b; [5]) of 43 ± 4 µM and an IC50 (STAT6; 106 nM STAT6, 10 nM tracer peptide) of 19.1 µM. For the same molecule, the Ki (STAT6; [5]) was 9.4 ± 1.9 µM, the IC50 (STAT5a; 125-177 nM STAT5a, 10 nM tracer peptide) was 8.1 µM and the Ki (STAT5a; [5]) was 4 ± 0.3 µM. For the same molecule, the IC50 (STAT1 [3]; 80-92 nM STAT1, 10 nM tracer peptide) was 38 µM and the Ki (STAT1 [3]; [5]) was 17 ± 1 µM.

In the case of `O=P(O)(O)Oc1ccc(-c2ccccc2)cc1F` [compound 13], the IC50 (STAT4 SH2 domain [4]) is given as 1.21 µM and the IC50 (STAT1 [2]) is given as 12.8 µM.
